The source of these data is PMC5339975, “Cytotoxicity, antimicrobial and antioxidant activity of eight compounds isolated from Entada abyssinica (Fabaceae)” (BMC Research Notes, 2017).

Structures are written as SMILES. Converted amounts (≈) assume the structure as drawn. Where two headings read alike, the source gives them in different places. Marks after values point to notes of the source that are not given here.

Series [1] is described as follows: DPPH radical-scavenging assay. The settings on record: mean ± SD of three experiments. As to the method: The DPPH radical-scavenging activity was assessed by the method previously described.
A further series can be described thus: ABTS radical assay. The settings on record: mean ± SD of three experiments. Here is the method: The antioxidant activity by ABTS was assessed according to the method previously described.
Series [2] deals with Staphylococcus aureus ATCC 29213. Kind of series: Antibacterial MIC, INT microdilution. Format: cell-based. The settings on record: ATCC29213, read-out: MIC Sa. As to the method: (§1) The six bacterial strains included: Pseudomonas aeruginosa ATCC 27853, Bacillus cereus ATCC 14579, Staphylococcus aureus ATCC 29213, Escherichia coli ATCC 25922, Salmonella typhimurium ATCC 14028 and Enterococcus faecalis ATCC 29212. The antimicrobial activity was evaluated by determining the minimal inhibitory concentration (MIC) by the rapid p-iodonitrotetrazolium violet (INT) microdilution method as previously described.
In general terms: Dilution methods test growth across graded concentrations, often in twofold steps.

In series [3] the test system is Enterococcus faecalis ATCC 29212. Briefly: Antibacterial MIC, INT microdilution. Format: cell-based. The settings on record: ATCC29212, read-out: MIC Ef. As to the method:
as §1

Series [4] deals with Pseudomonas aeruginosa ATCC 27853. Kind of series: Antibacterial MIC, INT microdilution. The settings on record: ATCC27853, read-out: MIC Pa. It counts as cell-based. As to the method: as §1
Series [5] has as its system Salmonella typhimurium ATCC 14028. Kind of series: Antibacterial MIC, INT microdilution. Format: cell-based. The settings on record: Salmonella enterica, read-out: MIC St. As to the method:
as §1

Series [6] has as its system Bacillus cereus ATCC 14579. Kind of series: Antibacterial MIC, INT microdilution. Format: cell-based. The settings on record: ATCC14579, read-out: MIC Bc. As to the method:
as §1

For series [7], the system named is Escherichia coli ATCC 25922. Briefly: Antibacterial MIC, INT microdilution. The settings on record: ATCC25922, read-out: MIC Ec. It counts as cell-based. As to the method:
as §1

Another series relates to S. aureus. The settings on record: cited from earlier work.
A short description of series [8]: MTT cytotoxicity assay, normal cells. It counts as cell-based. The settings on record: monkey. As to the method: (§2) Cancer cell lines including human monocytic THP-1 and murine macrophage RAW 264.7 cells and the normal mammalian Vero monkey kidney cell line were obtained from the American Type Culture Collection (Rockville, MD, USA). They were maintained in DMEM under standard cell culture conditions at 37 °C and 5% CO2 in a humidified environment.
(§3) The 3-(4,5-dimethylthiazol-2-yl)-2,5-diphenyltetrazolium bromide (MTT) assay was used to determine the cytotoxicity of the compounds as previously described. The selectivity index (SI) values to identify selective anti-cancer cell activity were calculated by dividing the LC50 values of normal Vero cells by the LC50 of cancer cells.

In the next series the test system is RAW 264.7 cells. Briefly: MTT cytotoxicity assay, cancer cells. It counts as cell-based. The settings on record: Mus musculus, RAW264.7, read-out: RAW 264.7 LC50. As to the method: as §2, §3
(Tetrazolium dyes change colour on reduction, which living cells bring about.)

The test system of another series is THP-1 cells. Briefly: MTT cytotoxicity assay, cancer cells. Format: cell-based. The settings on record: Homo sapiens, THP-1, read-out: THP-1 LC50. Here is the method:
as §2, §3

A short description of series [9]: Ferric reducing antioxidant power (FRAP) assay. The settings on record: mean ± SD of three experiments. Here is the method: The antioxidant activity by the ferric reducing antioxidant power (FRAP) was assessed according to the method previously described with slight modifications.
The test system of the next series is Vero monkey kidney cells. Kind of series: MTT cytotoxicity assay, normal cells. Format: cell-based. The settings on record: normal Vero cells, MTT, mean ± SD. Here is the method:
as §2, §3

Take `O=C1O[C@H]([C@@H](O)CO)C(O)=C1O` [Ascorbic acid, reference compound]: the “DPPH (IC50)” value in [1] was 3.44 ± 1.9^a,f µg/mL. Further, in “ABTS radical assay”, the “ABTS (IC50)” value is reported as 4.15 ± 1.21^d,e µg/mL.
Usually MIC stands for the smallest concentration in the dilution series that meets the test's criterion for growth inhibition. Consider `C[C@H]1[C@H](C)CC[C@]2(C(=O)O)CC[C@]3(C)C(=CC[C@@H]4[C@@]5(C)CC[C@H](O)C(C)(C)[C@@H]5CC[C@]43C)[C@H]12` [Compound 1, ursolic acid], for which the MIC is 12.5 µg/mL (≈ 27.4 µM) in series [2]; over 100 µg/mL in [3]; over 100 µg/mL in [4]; 100 µg/mL (≈ 219 µM) in [5] (Salmonella typhimurium); 6.25 µg/mL (≈ 13.7 µM) in series [6]; over 100 µg/mL in [7]. For the same compound, the MIC in the series on S. aureus is 4 µg/mL (≈ 8.76 µM). The CC50 in series [8] was 22.4 ± 2.48 µg/mL (≈ 49.1 µM); in the series on RAW 264.7 cells it was 4.56 ± 0.02 µg/mL (≈ 9.98 µM); in the series on THP-1 cells, 9.62 ± 0.59 µg/mL (≈ 21.1 µM).
As for `C[C@@H]1O[C@@H](Oc2c(-c3ccc(O)c(O)c3)oc3cc(O)cc(O)c3c2=O)[C@H](O)[C@H](O)[C@H]1O` [Compound 2, quercetin-3-O-α-L-rhamnoside], in series [1], the “DPPH (IC50)” value is 0.9 ± 0.06^b µg/mL. For the same compound, the MIC was 12.5 µg/mL (≈ 27.9 µM) in series [2]; 25 µg/mL (≈ 55.8 µM) in series [3]; 50 µg/mL (≈ 112 µM) in series [4]; 3.12 µg/mL (≈ 6.96 µM) in series [5]; 12.5 µg/mL (≈ 27.9 µM) in series [6]; 50 µg/mL (≈ 112 µM) in series [7]. In addition, in “ABTS radical assay”, the “ABTS (IC50)” value is on record as 3.53 ± 0.39^b µg/mL. Moreover, the FRAP in series [9] is 76.01 ± 1.10^b µmol FeSO4/g. Also, the CC50 in [8] (normal Vero cells, MTT, mean ± SD, read-out: Vero LC50) is 44.8 ± 2.83 µg/mL (≈ 100 µM); in the series with RAW 264.7 cells it was 16.4 ± 0.2 µg/mL (≈ 36.7 µM); in the series on THP-1 cells, over 100 µg/mL.
Regarding `COC(=O)/C=C(/C)CC[C@]1(C)[C@H]2CCC=C(C(=O)O)[C@]2(C)CC[C@@H]1C` [Compound 4, (8S)-kolavic acid 15-methyl ester], the “DPPH (IC50)” value in series [1] is recorded as “– (– 100 µg/mL)”. Further, the MIC in [2] was 25 µg/mL (≈ 71.7 µM); in [3], over 100 µg/mL; in [4], over 100 µg/mL; in series [5] (Salmonella typhimurium) it was 100 µg/mL (≈ 287 µM); in series [6] it was 25 µg/mL (≈ 71.7 µM); in series [7], over 100 µg/mL. In addition, the “ABTS (IC50)” value in the series “ABTS radical assay” was “– (– 100 µg/mL)”. For the same compound, the FRAP in [9] was 1.93 ± 0.14^a µmol FeSO4/g. Moreover, the CC50 in series [8] was found to be 47.5 ± 0.63 µg/mL (≈ 136 µM); in the series with RAW 264.7 cells it was 52.3 ± 1.3 µg/mL (≈ 150 µM); in the series on THP-1 cells it was 49.8 ± 3.03 µg/mL (≈ 143 µM).
In the case of `C[C@@H]1CC[C@@]2(C)C(C(=O)O)=CCC[C@@H]2[C@@]1(C)CC(=O)O` [Compound 5, 13,14,15,16-tetranor-3-clerodene-12,18-dioic acid], the “DPPH (IC50)” value in series [1] is recorded as “– (– 100 µg/mL)”. For the same compound, the MIC in [2], in series [3], in [4], in series [5] (Salmonella typhimurium), in [6] and in [7] was over 100 µg/mL each time. Also, the “ABTS (IC50)” value in “ABTS radical assay” is given as “– (– 100 µg/mL)”. Besides, in series [9], the FRAP is reported as 5.09 ± 0.40^c µmol FeSO4/g. Moreover, the figures for the CC50 (in series [8]; in the series on RAW 264.7 cells; in the series on THP-1 cells) were 41.9 ± 1.85 µg/mL (≈ 149 µM), 16.1 ± 1 µg/mL (≈ 57.4 µM) and 21.8 ± 1.11 µg/mL (≈ 77.8 µM), respectively.
As to `COC(=O)c1cc(O)c(O)c(O)c1` [Compound 6, methyl gallate], the “DPPH (IC50)” value in [1] is 0.48 ± 0.02^c µg/mL. Further, the MIC in series [2] is 50 µg/mL (≈ 272 µM); in series [3], over 100 µg/mL; in [4] it was over 100 µg/mL; in [5] (Salmonella typhimurium), 25 µg/mL (≈ 136 µM); in series [6], 50 µg/mL (≈ 272 µM); in series [7], over 100 µg/mL. Besides, in “ABTS radical assay”, the “ABTS (IC50)” value was 2.53 ± 0.49^d µg/mL. Moreover, the FRAP in series [9] was 103.98 ± 13.70^d µmol FeSO4/g. The CC50 came out at 30.6 ± 3.09 µg/mL (≈ 166 µM) in series [8], 36.9 ± 1.27 µg/mL (≈ 200 µM) with RAW 264.7 cells and 75 ± 1.68 µg/mL (≈ 407 µM) with THP-1 cells.
On to `COc1c(O)c(O)cc2c1COc1c-2oc2cc(O)cc(O)c2c1=O` [Compound 7, entadanin], for which the “DPPH (IC50)” value in series [1] is 1.12 ± 0.10^c,d µg/mL. Besides, the MIC in series [2] was 12.5 µg/mL (≈ 36.3 µM); in series [3] it was over 100 µg/mL; in [4] it was 25 µg/mL (≈ 72.6 µM); in series [5] (Salmonella typhimurium) it was 1.56 µg/mL (≈ 4.53 µM); in [6], 25 µg/mL (≈ 72.6 µM); in [7] it was 12.5 µg/mL (≈ 36.3 µM). In addition, the “ABTS (IC50)” value in “ABTS radical assay” is 4.13 ± 0.10^e µg/mL. In addition, in series [9], the FRAP is recorded as 72.41 ± 2.02^b,e µmol FeSO4/g. The CC50 was found to be 55.65 ± 0.3 µg/mL (≈ 162 µM) in [8], 19.1 ± 0.25 µg/mL (≈ 55.5 µM) in the series on RAW 264.7 cells and 84.3 ± 3.3 µg/mL (≈ 245 µM) in the series on THP-1 cells.
For `O=C(CCCCCCCCCCCCCCCCCCCCCCCCC(=O)OC[C@@H](O)CO)OC[C@@H](O)CO` [Compound 8, bis-[(S)-(2,3-dihydroxypropyl)] hexacosanedioate], the “DPPH (IC50)” value in series [1] is on record as “– (– 100 µg/mL)”. In addition, the MIC in [2], in series [3], in series [4], in series [5] (Salmonella typhimurium), in series [6] and in series [7] was over 100 µg/mL each time. Besides, the “ABTS (IC50)” value in the series “ABTS radical assay” is “– (– 100 µg/mL)”. Further, in series [9], the FRAP is listed as 22.98 ± 4.29^f µmol FeSO4/g. Also, the CC50 in series [8] stood at 80.5 ± 4.83 µg/mL (≈ 140 µM); in the series with RAW 264.7 cells, 86.5 ± 4.61 µg/mL (≈ 151 µM); in the series on THP-1 cells, 65 ± 6.88 µg/mL (≈ 113 µM).
As to `COc1cccc2c1C(=O)c1c(O)c3c(c(O)c1C2=O)C[C@@](O)(C(=O)CO)C[C@@H]3O[C@H]1C[C@H](N)[C@H](O)[C@H](C)O1` [Doxorubicin, reference compound], the “Vero LC50” value in the series with Vero monkey kidney cells is listed as 9.35 ± 0.66^h µg/mL. The CC50 in the series on RAW 264.7 cells is 0.5 µg/mL (≈ 0.92 µM); in the series with THP-1 cells, over 100 µg/mL.
For `CNC(C)C1CCC(N)C(OC2C(N)CC(N)C(OC3OCC(C)(O)C(NC)C3O)C2O)O1` (centres unmarked) [Gentamicin, reference compound], the MIC in [2] was found to be 0.5 µg/mL (≈ 1.05 µM); in [3], 0.25 µg/mL (≈ 0.523 µM); in [4], 0.25 µg/mL (≈ 0.523 µM); in series [5] (Salmonella typhimurium) it was 2 µg/mL (≈ 4.19 µM); in series [6], 0.5 µg/mL (≈ 1.05 µM); in series [7] it was 1 µg/mL (≈ 2.09 µM).
Turning to `COc1ccc(C[C@H](N)C(=O)N[C@H]2[C@@H](O)[C@H](n3cnc4c(N(C)C)ncnc43)O[C@@H]2CO)cc1` [Puromycin, reference compound], the “Vero LC50” value with Vero monkey kidney cells was 5.32 ± 0.90^i µg/mL. The CC50 in the series on RAW 264.7 cells worked out at 1.15 ± 0.17 µg/mL (≈ 2.44 µM); with THP-1 cells it was 0.4 ± 0.02 µg/mL (≈ 0.848 µM).
`Cc1c(C)c2c(c(C)c1O)CCC(C)(C(=O)O)O2` (centres unmarked) [Trolox, reference compound]: the “DPPH (IC50)” value in series [1] is recorded as 8.71 ± 2.03^e µg/mL. In addition, the “ABTS (IC50)” value in “ABTS radical assay” is 10.38 ± 2.4^a,f µg/mL.
